{"source": "paper PMC5761851", "about": "“Application of a phenotypic drug discovery strategy to identify biological and chemical starting points for inhibition of TSLP production in lung epithelial cells” (PLoS ONE, 2018)", "key": {"sst4": {"biological_target": "T1, sst4 (Homo sapiens, UniProt P31391)", "T1 construct": "purchased Eurofins Pharma Discovery Services (KinaseProfiler; Cerep BioPrint panel)", "T1 sequence (P31391 whole entry)": "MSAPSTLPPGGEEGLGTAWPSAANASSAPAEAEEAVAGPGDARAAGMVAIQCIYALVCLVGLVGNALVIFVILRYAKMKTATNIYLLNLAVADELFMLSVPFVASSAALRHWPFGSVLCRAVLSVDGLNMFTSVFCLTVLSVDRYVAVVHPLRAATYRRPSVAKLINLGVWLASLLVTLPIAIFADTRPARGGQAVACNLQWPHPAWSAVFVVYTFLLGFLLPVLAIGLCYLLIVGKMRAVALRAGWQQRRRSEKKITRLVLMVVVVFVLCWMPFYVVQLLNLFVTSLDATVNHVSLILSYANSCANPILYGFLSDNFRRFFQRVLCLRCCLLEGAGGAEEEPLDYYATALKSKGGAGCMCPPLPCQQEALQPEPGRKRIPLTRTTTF", "experiment": "BioPrint panel: sst4 (h) (agonist)", "assay_type": "binding", "settings": "1 micromolar, read-out: percentage of inhibition of activity", "source_text": "(§1) Supplement pone.0189247.s004.xlsx, sheet \"Bioprint Selectivity Panel\" | column: %"}, "ACE": {"biological_target": "T2, ACE (Homo sapiens, UniProt P12821)", "T2 construct": "purchased Eurofins Pharma Discovery Services (KinaseProfiler; Cerep BioPrint panel)", "experiment": "BioPrint panel: ACE (h)", "assay_type": "biochemical", "settings": "1 micromolar", "source_text": "as §1"}, "SKCa channel": {"tested_on": "SKCa channel", "experiment": "BioPrint panel: SKCa channel (antagonist)", "assay_type": "binding", "settings": "1 micromolar", "source_text": "as §1"}, "Fyn": {"biological_target": "T3, Fyn (Homo sapiens, UniProt P06241)", "T3 construct": "purchased Eurofins Pharma Discovery Services (KinaseProfiler; Cerep BioPrint panel)", "T3 sequence (P06241 whole entry)": "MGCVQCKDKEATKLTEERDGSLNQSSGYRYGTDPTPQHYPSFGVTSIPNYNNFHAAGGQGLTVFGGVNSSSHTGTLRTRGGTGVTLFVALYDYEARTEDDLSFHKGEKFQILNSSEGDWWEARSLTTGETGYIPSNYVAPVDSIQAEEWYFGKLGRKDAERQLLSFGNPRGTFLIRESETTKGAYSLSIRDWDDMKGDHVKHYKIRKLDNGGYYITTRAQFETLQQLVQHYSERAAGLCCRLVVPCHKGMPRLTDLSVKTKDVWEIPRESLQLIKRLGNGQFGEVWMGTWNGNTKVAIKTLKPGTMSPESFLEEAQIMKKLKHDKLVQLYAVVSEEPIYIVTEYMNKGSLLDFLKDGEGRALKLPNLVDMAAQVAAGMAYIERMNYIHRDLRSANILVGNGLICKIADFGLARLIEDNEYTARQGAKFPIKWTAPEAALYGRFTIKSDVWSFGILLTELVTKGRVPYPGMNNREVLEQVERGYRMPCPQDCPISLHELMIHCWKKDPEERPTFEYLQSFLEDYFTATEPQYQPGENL", "experiment": "BioPrint panel: Fyn kinase (h)", "assay_type": "biochemical", "settings": "1 micromolar, read-out: percentage of inhibition of activity", "source_text": "as §1"}, "mu (MOP)": {"biological_target": "T4, mu (MOP) (Homo sapiens, UniProt P35372)", "T4 construct": "purchased Eurofins Pharma Discovery Services (KinaseProfiler; Cerep BioPrint panel)", "T4 sequence (P35372 whole entry)": "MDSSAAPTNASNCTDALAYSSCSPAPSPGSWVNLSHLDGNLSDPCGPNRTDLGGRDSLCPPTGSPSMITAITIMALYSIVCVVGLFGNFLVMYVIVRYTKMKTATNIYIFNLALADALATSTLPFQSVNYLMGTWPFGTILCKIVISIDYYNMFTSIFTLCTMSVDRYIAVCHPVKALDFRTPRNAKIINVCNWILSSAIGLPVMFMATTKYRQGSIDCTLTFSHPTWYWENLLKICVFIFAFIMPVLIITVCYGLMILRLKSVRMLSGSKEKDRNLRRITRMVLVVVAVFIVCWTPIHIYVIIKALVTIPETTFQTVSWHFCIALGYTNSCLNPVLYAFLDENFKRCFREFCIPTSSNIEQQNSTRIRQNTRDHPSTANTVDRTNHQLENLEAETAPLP", "experiment": "BioPrint panel: mu (MOP) (h) (agonist)", "assay_type": "binding", "settings": "1 micromolar, read-out: percentage of inhibition of activity", "source_text": "as §1"}, "MAO-A": {"biological_target": "T5, MAO-A (Rattus norvegicus, UniProt P21396)", "T5 construct": "purchased Eurofins Pharma Discovery Services (KinaseProfiler; Cerep BioPrint panel)", "T5 sequence (P21396 whole entry)": "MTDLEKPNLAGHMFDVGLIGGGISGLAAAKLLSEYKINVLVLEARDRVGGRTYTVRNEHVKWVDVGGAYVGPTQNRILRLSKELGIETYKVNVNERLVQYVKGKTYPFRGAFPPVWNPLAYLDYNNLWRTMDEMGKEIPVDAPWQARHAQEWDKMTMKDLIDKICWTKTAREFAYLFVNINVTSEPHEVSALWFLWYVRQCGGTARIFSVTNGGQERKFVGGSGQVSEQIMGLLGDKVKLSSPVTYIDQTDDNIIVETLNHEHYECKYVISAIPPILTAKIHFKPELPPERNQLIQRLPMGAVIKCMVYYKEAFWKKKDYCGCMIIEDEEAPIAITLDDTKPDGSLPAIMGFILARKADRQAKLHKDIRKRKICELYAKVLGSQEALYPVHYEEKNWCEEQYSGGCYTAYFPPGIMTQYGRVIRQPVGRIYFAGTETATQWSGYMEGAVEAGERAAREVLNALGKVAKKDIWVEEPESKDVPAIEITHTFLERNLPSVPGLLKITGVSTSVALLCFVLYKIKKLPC", "experiment": "BioPrint panel: MAO-A (antagonist)", "assay_type": "binding", "settings": "1 micromolar, read-out: percentage of inhibition of activity", "source_text": "as §1"}, "FLT-1 kinase (VEGFR1)": {"biological_target": "T6, FLT-1 kinase (VEGFR1) (Homo sapiens, UniProt P17948)", "T6 construct": "purchased Eurofins Pharma Discovery Services (KinaseProfiler; Cerep BioPrint panel)", "T6 sequence (P17948 27-1338)": "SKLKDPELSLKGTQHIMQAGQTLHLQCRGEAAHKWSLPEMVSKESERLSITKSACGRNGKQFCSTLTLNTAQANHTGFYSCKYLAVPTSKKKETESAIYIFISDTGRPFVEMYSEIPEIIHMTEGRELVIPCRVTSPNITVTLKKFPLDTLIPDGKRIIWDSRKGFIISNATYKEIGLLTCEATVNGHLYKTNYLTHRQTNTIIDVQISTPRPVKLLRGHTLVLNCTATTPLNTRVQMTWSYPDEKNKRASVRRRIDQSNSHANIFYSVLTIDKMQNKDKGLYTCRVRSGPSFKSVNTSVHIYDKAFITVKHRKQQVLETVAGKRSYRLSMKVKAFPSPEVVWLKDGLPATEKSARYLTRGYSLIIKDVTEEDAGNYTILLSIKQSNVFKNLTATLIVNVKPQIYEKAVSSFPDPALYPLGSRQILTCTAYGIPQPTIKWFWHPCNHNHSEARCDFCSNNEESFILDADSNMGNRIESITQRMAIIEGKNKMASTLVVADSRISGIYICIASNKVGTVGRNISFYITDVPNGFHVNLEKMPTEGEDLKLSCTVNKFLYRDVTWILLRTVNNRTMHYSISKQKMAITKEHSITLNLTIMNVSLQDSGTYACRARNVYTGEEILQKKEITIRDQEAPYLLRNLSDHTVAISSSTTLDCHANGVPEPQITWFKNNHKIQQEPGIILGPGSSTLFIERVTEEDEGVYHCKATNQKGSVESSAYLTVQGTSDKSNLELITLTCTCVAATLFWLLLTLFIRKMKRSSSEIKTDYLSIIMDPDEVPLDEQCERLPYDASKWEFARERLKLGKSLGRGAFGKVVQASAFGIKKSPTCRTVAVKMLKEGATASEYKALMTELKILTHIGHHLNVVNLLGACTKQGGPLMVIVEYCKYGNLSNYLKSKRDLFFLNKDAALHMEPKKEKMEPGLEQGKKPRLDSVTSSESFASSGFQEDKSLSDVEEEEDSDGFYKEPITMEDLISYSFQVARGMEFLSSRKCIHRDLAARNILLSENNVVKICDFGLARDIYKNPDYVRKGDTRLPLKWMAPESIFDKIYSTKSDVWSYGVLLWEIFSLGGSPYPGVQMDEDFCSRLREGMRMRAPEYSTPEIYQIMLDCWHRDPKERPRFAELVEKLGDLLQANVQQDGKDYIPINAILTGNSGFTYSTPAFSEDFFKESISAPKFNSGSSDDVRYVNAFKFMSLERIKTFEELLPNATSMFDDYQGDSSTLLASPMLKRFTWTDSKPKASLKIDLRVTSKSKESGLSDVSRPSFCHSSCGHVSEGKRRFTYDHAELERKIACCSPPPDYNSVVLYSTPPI", "experiment": "BioPrint panel: FLT-1 kinase (h) (VEGFR1)", "assay_type": "biochemical", "settings": "1 micromolar, read-out: percentage of inhibition of activity", "source_text": "as §1"}, "[1]": {"biological_target": "T7, xanthine oxidase/ superoxide O2- scavenging (Bos taurus, UniProt P80457)", "T7 construct": "purchased Eurofins Pharma Discovery Services (KinaseProfiler; Cerep BioPrint panel)", "experiment": "BioPrint panel: xanthine oxidase/ superoxide O2- scavenging", "assay_type": "biochemical", "settings": "1 micromolar, read-out: percentage of inhibition of activity", "source_text": "as §1"}, "D2S": {"biological_target": "T8, D2S (Homo sapiens, UniProt P14416)", "T8 construct": "purchased Eurofins Pharma Discovery Services (KinaseProfiler; Cerep BioPrint panel)", "T8 sequence (P14416 1-414 isoform P14416-2)": "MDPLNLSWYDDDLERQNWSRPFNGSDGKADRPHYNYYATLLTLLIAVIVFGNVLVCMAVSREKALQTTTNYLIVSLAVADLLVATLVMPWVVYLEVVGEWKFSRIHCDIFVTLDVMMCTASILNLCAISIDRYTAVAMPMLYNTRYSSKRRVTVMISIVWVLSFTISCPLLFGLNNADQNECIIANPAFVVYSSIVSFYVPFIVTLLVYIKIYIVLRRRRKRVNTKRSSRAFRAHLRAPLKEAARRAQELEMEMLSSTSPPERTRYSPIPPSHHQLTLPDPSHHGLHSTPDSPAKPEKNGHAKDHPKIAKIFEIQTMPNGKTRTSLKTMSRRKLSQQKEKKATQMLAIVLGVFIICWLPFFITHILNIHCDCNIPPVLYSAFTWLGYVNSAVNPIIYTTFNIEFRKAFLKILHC", "experiment": "BioPrint panel: D2S (h) (agonist)", "assay_type": "binding", "settings": "1 micromolar, read-out: percentage of inhibition of activity", "source_text": "as §1"}, "GR": {"biological_target": "T9, GR (Homo sapiens, UniProt P04150)", "T9 construct": "purchased Eurofins Pharma Discovery Services (KinaseProfiler; Cerep BioPrint panel)", "T9 sequence (P04150 whole entry)": "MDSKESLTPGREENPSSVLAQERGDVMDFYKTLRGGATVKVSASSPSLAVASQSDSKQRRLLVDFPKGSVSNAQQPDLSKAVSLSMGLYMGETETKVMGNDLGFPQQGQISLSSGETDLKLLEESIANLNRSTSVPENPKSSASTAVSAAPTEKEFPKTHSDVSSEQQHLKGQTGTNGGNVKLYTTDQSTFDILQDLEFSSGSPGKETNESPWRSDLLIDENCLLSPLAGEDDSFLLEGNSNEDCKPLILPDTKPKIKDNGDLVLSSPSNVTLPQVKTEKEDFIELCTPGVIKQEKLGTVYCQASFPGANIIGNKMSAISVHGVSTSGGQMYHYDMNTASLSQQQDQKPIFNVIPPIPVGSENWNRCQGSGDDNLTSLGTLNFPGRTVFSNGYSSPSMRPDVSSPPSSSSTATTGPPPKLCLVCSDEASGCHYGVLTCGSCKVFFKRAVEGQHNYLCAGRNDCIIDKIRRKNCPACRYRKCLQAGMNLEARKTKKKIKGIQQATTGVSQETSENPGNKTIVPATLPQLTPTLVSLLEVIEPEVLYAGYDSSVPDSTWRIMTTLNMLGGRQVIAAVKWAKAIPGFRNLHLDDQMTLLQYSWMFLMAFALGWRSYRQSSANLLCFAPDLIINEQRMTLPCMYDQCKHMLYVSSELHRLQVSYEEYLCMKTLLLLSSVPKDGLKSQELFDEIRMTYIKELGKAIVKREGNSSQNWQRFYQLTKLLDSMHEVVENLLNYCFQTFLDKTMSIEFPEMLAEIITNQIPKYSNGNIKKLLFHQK", "experiment": "BioPrint panel: GR (h) (agonist)", "assay_type": "binding", "settings": "1 micromolar, read-out: percentage of inhibition of activity", "source_text": "as §1"}, "dopamine transporter": {"biological_target": "T10, dopamine transporter (Homo sapiens, UniProt Q01959)", "T10 construct": "purchased Eurofins Pharma Discovery Services (KinaseProfiler; Cerep BioPrint panel)", "experiment": "BioPrint panel: dopamine transporter (h) (antagonist)", "assay_type": "binding", "settings": "1 micromolar, read-out: percentage of inhibition of activity", "source_text": "as §1"}, "Syk": {"biological_target": "Syk (Homo sapiens, UniProt P43405)", "experiment": "Enzymatic Syk kinase activity assay", "assay_type": "biochemical"}, "M4": {"biological_target": "T11, M4 (Homo sapiens, UniProt P08173)", "T11 construct": "purchased Eurofins Pharma Discovery Services (KinaseProfiler; Cerep BioPrint panel)", "T11 sequence (P08173 whole entry)": "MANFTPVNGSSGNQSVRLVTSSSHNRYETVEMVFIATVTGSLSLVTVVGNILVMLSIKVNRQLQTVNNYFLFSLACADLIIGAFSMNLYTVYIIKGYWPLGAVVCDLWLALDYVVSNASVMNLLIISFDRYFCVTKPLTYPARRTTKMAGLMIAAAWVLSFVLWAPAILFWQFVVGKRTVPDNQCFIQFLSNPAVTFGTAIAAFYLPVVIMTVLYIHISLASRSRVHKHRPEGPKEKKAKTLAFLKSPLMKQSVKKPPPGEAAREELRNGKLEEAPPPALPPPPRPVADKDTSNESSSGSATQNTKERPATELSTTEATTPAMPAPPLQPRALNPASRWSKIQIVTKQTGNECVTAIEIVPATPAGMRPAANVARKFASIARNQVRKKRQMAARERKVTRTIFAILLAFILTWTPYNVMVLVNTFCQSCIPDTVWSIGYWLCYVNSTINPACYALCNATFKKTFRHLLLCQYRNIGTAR", "experiment": "BioPrint panel: M4 (h) (antagonist)", "assay_type": "binding", "settings": "1 micromolar, read-out: percentage of inhibition of activity", "source_text": "as §1"}, "GABA transporter": {"tested_on": "GABA transporter", "experiment": "BioPrint panel: GABA transporter (antagonist)", "assay_type": "binding", "settings": "1 micromolar", "source_text": "as §1"}, "ZAP-70": {"biological_target": "T12, ZAP-70 (Homo sapiens, UniProt P43403)", "T12 construct": "purchased Eurofins Pharma Discovery Services (KinaseProfiler; Cerep BioPrint panel)", "T12 sequence (P43403 1-619)": "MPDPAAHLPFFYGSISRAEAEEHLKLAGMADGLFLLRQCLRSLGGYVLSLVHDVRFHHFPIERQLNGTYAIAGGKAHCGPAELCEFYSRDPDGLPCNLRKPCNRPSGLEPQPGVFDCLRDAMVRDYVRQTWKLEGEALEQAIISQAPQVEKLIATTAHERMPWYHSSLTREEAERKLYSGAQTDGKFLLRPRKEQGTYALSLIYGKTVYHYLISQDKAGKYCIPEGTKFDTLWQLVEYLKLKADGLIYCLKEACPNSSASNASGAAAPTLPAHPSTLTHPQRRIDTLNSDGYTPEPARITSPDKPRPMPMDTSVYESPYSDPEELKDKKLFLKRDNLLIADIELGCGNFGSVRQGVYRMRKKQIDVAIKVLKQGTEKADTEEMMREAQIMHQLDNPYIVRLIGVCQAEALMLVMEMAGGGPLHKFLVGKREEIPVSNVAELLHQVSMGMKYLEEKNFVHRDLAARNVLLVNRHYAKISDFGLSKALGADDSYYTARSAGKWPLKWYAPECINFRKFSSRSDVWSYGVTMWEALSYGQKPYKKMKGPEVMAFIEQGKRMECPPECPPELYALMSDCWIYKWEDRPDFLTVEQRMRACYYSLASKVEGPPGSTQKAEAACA", "experiment": "BioPrint panel: ZAP70 kinase (h)", "assay_type": "biochemical", "settings": "1 micromolar, read-out: percentage of inhibition of activity", "source_text": "as §1"}, "LAD2 cells degranulation": {"tested_on": "LAD2 cells degranulation", "experiment": "Syk dependent LAD2 cells degranulation", "assay_type": "cell-based, human", "protocol": "Normal human bronchial epithelial cells (NHBE) (Lonza CC-2540,) corresponding to 2 different lots derived from 2 human healthy donors, henceforth referred to as donors #1 and #2, were purchased from Lonza, who provided the cells after obtaining permission for use in research applications by informed consent. Cells were cultured in 5% CO2 at 37°C according to the manufacturer´s instructions using Lonza´s Bronchial Epithelial Basal Medium (BEBM) (CC-3171) supplemented with Lonza´s Bronchial Epithelial Cell Growth Medium bullet kit (BEGM) (CC-4175), and grown in collagen coated T-75 and T-175 tissue culture flasks as required (Becton Dickinson 356485 and 356487). Subculturing after trypsinization and amplification was performed using Lonza´s reagent pack subculture reagents (CC-5034) following the manufacturer´s instructions. CHO-K1 and THP-1 cells were purchased from the ATCC through LGC standards (ATCC CCL-61 and TIB-202 respectively). The LAD2 cell line is a human mast cell line established at the National Institutes of Health (Bethesda, Maryland, U.S.).\nQuantification of enzymatic p38 activity and p38-dependent TNF production in THP-1 cells was performed as previously described. Enzymatic Syk kinase activity assays and Syk dependent LAD2 cells degranulation assays were performed as previously described. PI3Kδ dependent pAkt phosphorylation in macrophage colony-stimulating factor (M-CSF) stimulated THP-1 cells was measured as previously described."}, "CHO-K1 cells": {"tested_on": "CHO-K1 cells", "experiment": "CHO-K1 viability (ATPlite)", "assay_type": "cell-based", "settings": "25 μM", "protocol": "The viability of NHBE and CHO-K1 cells was quantified using ATP as an indirect read out of the potential cytotoxicity of the compounds. […] Plates were shaken and covered with aluminium foil for 25 min. Luminescence was measured in an Envision reader (Perkin Elmer). Evaluation of viability in CHO-K1 cells was used as an internal compound cytotoxicity standard across cellular assays. […] The plates were incubated for 24 h at 37°C in 5% CO2. After the incubation period, the culture medium was removed and washed with 100 μl of DPBS. Test compounds were dissolved and serially diluted in 100% DMSO. A final 1/100 dilution of each concentration was performed using F12 culture medium with 0.5% FBS. A volume of 100 μl culture medium containing the compounds or 1% DMSO (for control wells) was added to the wells containing the cells and the plate was incubated again 24h. After 24h of compound exposure, cells were washed with DPBS. Then, 100 μl of PBS were added, followed by the addition of 100 μl of ATPlite™ reagent. The plate was shaken for 25 minutes using a microtiter plate shaker. Luminescence was measured using a Luminoskan Ascent luminometer (Thermo Fisher Scientific).\nFor CHO-K1 viability assays, a standard curve of cells was included in the plate. Luminescence values versus cell number were plotted and the data adjusted to a linear equation. Luminescence values of the samples were interpolated to obtain number of cells. IC50 values were obtained by non-linear regression using Activity Base software (IDBS) and a four-parameter log equation."}}, "note": "Where “and” joins values, the source holds several entries; their conditions need not be identical. Equal entries are not always repeated. Where two headings read alike, the source gives them in different places.", "data": [{"smiles": "Cn1cc(-c2cccc(-c3nc(C(=O)NC4C5CC6CC4CC(O)(C6)C5)c(N)nc3N)c2)cn1", "note": "(stereo not shown) [compound 4]", "values": [{"measurement": "inhibition at 1 µM", "setting": "sst4", "result": -11.8, "unit": "%"}, {"measurement": "percentage of inhibition of activity", "setting": "ACE", "result": "INTER"}, {"measurement": "percentage of inhibition of activity", "setting": "SKCa channel", "result": -10.2, "unit": "%"}, {"measurement": "inhibition at 1 µM", "setting": "Fyn", "result": -9.2, "unit": "%"}, {"measurement": "inhibition at 1 µM", "setting": "mu (MOP)", "result": -2.6, "unit": "%"}, {"measurement": "inhibition at 1 µM", "setting": "MAO-A", "result": 6.4, "unit": "%"}, {"measurement": "inhibition at 1 µM", "setting": "FLT-1 kinase (VEGFR1)", "result": -4.8, "unit": "%"}, {"measurement": "inhibition at 1 µM", "setting": "[1]", "result": -15.3, "unit": "%"}, {"measurement": "inhibition at 1 µM", "setting": "D2S", "result": -1.5, "unit": "%"}, {"measurement": "inhibition at 1 µM", "setting": "GR", "result": 0.9, "unit": "%"}, {"measurement": "inhibition at 1 µM", "setting": "dopamine transporter", "result": 7.5, "unit": "%"}, {"measurement": "IC50", "setting": "Syk; geometric mean, read-out: Activity in reference biochemical assay (IC50, μM) (95% CI) Syk", "result": 11.8, "unit": "µM"}, {"measurement": "IC50", "setting": "Syk; individual values, read-out: Biochemical activity (IC50, mM) (Syk)", "result": "12.2 µM and 11.4 µM"}, {"measurement": "inhibition at 1 µM", "setting": "M4", "result": 0.7, "unit": "%"}, {"measurement": "percentage of inhibition of activity", "setting": "GABA transporter", "result": 1.1, "unit": "%"}, {"measurement": "inhibition at 1 µM", "setting": "ZAP-70", "result": 5.5, "unit": "%"}]}, {"smiles": "CS(=O)(=O)N1CCN(c2ccc(Nc3ncc(C(N)=O)c(NC4CC4)n3)cc2)CC1", "note": "[compound 5]", "values": [{"measurement": "IC50", "setting": "LAD2 cells degranulation; Homo sapiens, LAD2, geometric mean, read-out: Activity in reference cell based assay (IC50, μM) (95% CI) LAD2 cells degranulation", "result": 0.019, "unit": "µM"}, {"measurement": "IC50", "setting": "LAD2 cells degranulation; individual values, read-out: Cellular activity (IC50, mM) LAD2 cells degranulation", "result": "0.0341 µM and 0.015 µM and 0.0149 µM"}]}, {"smiles": "COc1c(NC(=O)c2ccc(C)c(-c3nnc4c(NCC(C)(C)C)nccn34)c2)cc(C(C)(C)C)cc1NS(C)(=O)=O", "note": "[compound 7, reference compound]", "values": [{"measurement": "Inhibition of CHO viability at [25 μM] % Inhibition ± SD", "setting": "CHO-K1 cells", "result": "0.39 ± 11", "unit": "%"}]}]}
